Source: patent US20080032985A1, “4-Substituted Quinoline Derivatives, Method and Intermediates for Their Preparation and Pharmaceutical Compositions Containing Them” (priority 2004, published 2008)
In brackets after ≈: the same amount, converted by molar mass.

Experiments:
[1] = test system: M. catarrhalis IPA151 sensitive; experiment: MIC by dilutions in agar medium (NCCLS), Gram-negative; type: cell-based; settings: Moraxella catarrhalis, IPA151SENSITIVE; at 48 hours; agar dilution
From the text: (§1) The method of dilutions in agar medium in agreement with the NCCLS recommendations is used for the determination of the minimum inhibitory concentrations (MIC) expressed in mg/l.
(§2) The activities of the compounds of examples 5, 8, 10-13 are grouped together in the following table: […]

[2] = test system: H. influenzae MDK 1528 sensitive; experiment: as above; type: cell-based; settings: Haemophilus influenzae; at 48 hours; agar dilution
From the text: as §1, §2

[3] = test system: E. faecalis ATCC S343211 vancomycin resistant; experiment: MIC by dilutions in agar medium (NCCLS), Gram-positive; type: cell-based; settings: Enterococcus faecalis; at 24 hours; agar dilution
From the text: as §1, §2

[4] = test system: S. aureus AS 5155 methicillin resistant; experiment: as above; type: cell-based; settings: Staphylococcus aureus; at 24 hours; agar dilution
From the text: as §1, §2

[5] = test system: S. aureus IP8203 sensitive; experiment: as above; type: cell-based; settings: Staphylococcus aureus; at 24 hours; agar dilution
From the text: as §1, §2

[6] = test system: S. pneumoniae 6254-01 MLSB resistant; experiment: as above; type: cell-based; settings: Streptococcus pneumoniae; at 24 hours; agar dilution
From the text: as §1, §2

Row | SMILES | MIC [1] | MIC [2] | MIC [3] | MIC [4] | MIC [5] | MIC [6] | melting point
1 | COc1ccc2ncc(F)c(CCCC(CNCCSc3cc(F)ccc3F)C(=O)O)c2c1 (racemic) [Example 12, (RS)-2-{[2-(2,5-Difluorophenylsulfanyl)ethylamino]-methyl}-5-(3-fluoro-6-methoxyquinolin-4-yl)pentanoic acid] | 0.5 to 4 µg/mL (≈ 1.04 to 8.36 µM) | 2 to 8 µg/mL (≈ 4.18 to 16.7 µM) | 0.25 to 1 µg/mL (≈ 0.522 to 2.09 µM) | 0.12 to 1 µg/mL (≈ 0.251 to 2.09 µM) | 0.12 to 1 µg/mL (≈ 0.251 to 2.09 µM) | 0.25 to 0.5 µg/mL (≈ 0.522 to 1.04 µM) | –
2 | COc1ccc2ncc(F)c(CCCC(CN(C/C=C/c3cc(F)ccc3F)CCF)C(=O)O)c2c1 (racemic) [Example 14, (RS)-2-{[N-[(E)-3-(2,5-difluorophenyl)allyl]-N-(2-fluoroethyl)amino]methyl}-5-(3-fluoro-6-methoxy-quinolin-4-yl)pentanoic acid] | – | – | – | – | – | – | 120 °C
3 | COc1ccc2ncc(F)c(CCCC(CNCCOc3cc(F)ccc3F)C(=O)O)c2c1 (racemic) [Example 13, (RS)-2-{[2-(2,5-Difluorophenoxy)ethylamino]methyl}-5-(3-fluoro-6-methoxyquinolin-4-yl)pentanoic acid] | 0.5 to 4 µg/mL (≈ 1.08 to 8.65 µM) | 2 to 8 µg/mL (≈ 4.32 to 17.3 µM) | 0.25 to 1 µg/mL (≈ 0.541 to 2.16 µM) | 0.12 to 1 µg/mL (≈ 0.259 to 2.16 µM) | 0.12 to 1 µg/mL (≈ 0.259 to 2.16 µM) | 0.25 to 0.5 µg/mL (≈ 0.541 to 1.08 µM) | –
4 | COc1ccc2ncc(F)c(CCCC(CN(C)C/C=C/c3cc(F)ccc3F)C(=O)[O-])c2c1.[Na+] (racemic) [Example 10, Sodium (RS)-2-({N-[(E)-3-(2,5-difluorophenyl)allyl]-N-methylamino}methyl)-5-(3-fluoro-6-methoxyquinolin-4-yl)pentanoate] | 0.5 to 4 µg/mL | 2 to 8 µg/mL | 0.25 to 1 µg/mL | 0.12 to 1 µg/mL | 0.12 to 1 µg/mL | 0.25 to 0.5 µg/mL | –
5 | COc1ccc2ncc(F)c(CCCC(CNC/C=C/c3cc(F)ccc3F)C(=O)O)c2c1 (single isomer, unassigned) [Example 6, 2-{[(E)-3-(2,5-difluorophenyl)allylamino]methyl}-5-(3-fluoro-6-methoxyquinolin-4-yl)pentanoic acid] | – | – | – | – | – | – | 168 °C
6 | COc1ccc2ncc(F)c(CCCC(CNC/C=C/c3cc(F)ccc3F)C(=O)O)c2c1 (racemic) [Example 5, (RS)-2-{[(E)-3-(2,5-difluorophenyl)allylamino]methyl}-5-(3-fluoro-6-methoxyquinolin-4-yl)pentanoic acid] | 0.5 to 4 µg/mL (≈ 1.09 to 8.72 µM) | 2 to 8 µg/mL (≈ 4.36 to 17.4 µM) | 0.25 to 1 µg/mL (≈ 0.545 to 2.18 µM) | 0.12 to 1 µg/mL (≈ 0.262 to 2.18 µM) | 0.12 to 1 µg/mL (≈ 0.262 to 2.18 µM) | 0.25 to 0.5 µg/mL (≈ 0.545 to 1.09 µM) | –
7 | COc1ccc2ncc(F)c(CCCC(CNCCSc3cccs3)C(=O)O)c2c1 (racemic) [Example 11, (RS)-5-(3-Fluoro-6-methoxyquinolin-4-yl)-2-{[2-(thiophen-2-ylsulfanyl)ethylamino]methyl}pentanoic acid] | 0.5 to 4 µg/mL (≈ 1.11 to 8.92 µM) | 2 to 8 µg/mL (≈ 4.46 to 17.8 µM) | 0.25 to 1 µg/mL (≈ 0.557 to 2.23 µM) | 0.12 to 1 µg/mL (≈ 0.268 to 2.23 µM) | 0.12 to 1 µg/mL (≈ 0.268 to 2.23 µM) | 0.25 to 0.5 µg/mL (≈ 0.557 to 1.11 µM) | –
8 | COc1ccc2ncc(F)c(CCCC(CNCCCc3cc(F)ccc3F)C(=O)O)c2c1 (racemic) [Example 8, (RS)-2-{[3-(2,5-difluorophenyl)propylamino]methyl}-5-(3-fluoro-6-methoxyquinolin-4-yl)pentanoic acid] | 0.5 to 4 µg/mL (≈ 1.09 to 8.69 µM) | 2 to 8 µg/mL (≈ 4.34 to 17.4 µM) | 0.25 to 1 µg/mL (≈ 0.543 to 2.17 µM) | 0.12 to 1 µg/mL (≈ 0.261 to 2.17 µM) | 0.12 to 1 µg/mL (≈ 0.261 to 2.17 µM) | 0.25 to 0.5 µg/mL (≈ 0.543 to 1.09 µM) | –
9 | COc1ccc2ncc(F)c(CCCC(CNC/C=C/c3cc(F)ccc3F)C(=O)O)c2c1 (single isomer, unassigned) [Example 7, 2-{[(E)-3-(2,5-difluorophenyl)allylamino]methyl}-5-(3-fluoro-6-methoxyquinolin-4-yl)pentanoic acid] | – | – | – | – | – | – | 166 °C
